The values that follow come from patent US20020165168A1, “USE OF SUGAR DERIVATIVES AS ANTIMICROBIAL, ANTIMYCOTIC AND/OR ANTIVIRAL ACTIVE SUBSTANCES” (priority 1995, published 2002).

Structures are written as SMILES.

The assay has as its system Corynebacterium xerosis. Description: action against Corynebacterium xerosis. The note with it: qualitative statement, no method or data given.
As to `CCCCCCCCCO[C@@H]1O[C@H](CO)[C@@H](O)[C@H](O)[C@H]1O` [β-D-nonylglucopyranoside], the “action against Corynebacterium xerosis” value is “very good action”.
Consider `CCCCCCCCCCCCO[C@@H]1O[C@H](CO)[C@@H](O)[C@H](O)[C@H]1O` [β-D-dodecylglucopyranoside], for which the “action against Corynebacterium xerosis” value was “very good action”.
Turning to `CCCCCCCCOC1O[C@H](CO)[C@@H](O)[C@H](O)[C@H]1O` (stereo partly drawn) [octylglucopyranoside], the “action against Corynebacterium xerosis” value is recorded as “very good action”.
